Data published in PMC8482806, “A Novel Blood-Brain Barrier-Permeable Chemotherapeutic Agent for the Treatment of Glioblastoma” (Cureus, 2021).
pIC50: −log10 of the molar value.

How the values were obtained:
[1] = target: T1, hLAT2 (Homo sapiens, UniProt Q9UHI5); experiment: Substrate transport inhibition, [3H]-leucine uptake in LLC-PK1 cells expressing hLAT2; format: cell-based; details: [3H]-leucine, LLC-PK1 LAT2-expressing cells, 15 minutes at room temperature; read-out: IC50, inhibition of substrate transport (LAT2)
T1 construct: host or cells: LLC-PK1 (tetracycline-inducible, Invitrogen Gateway pT-REx System)
T1 sequence (Q9UHI5 1-535): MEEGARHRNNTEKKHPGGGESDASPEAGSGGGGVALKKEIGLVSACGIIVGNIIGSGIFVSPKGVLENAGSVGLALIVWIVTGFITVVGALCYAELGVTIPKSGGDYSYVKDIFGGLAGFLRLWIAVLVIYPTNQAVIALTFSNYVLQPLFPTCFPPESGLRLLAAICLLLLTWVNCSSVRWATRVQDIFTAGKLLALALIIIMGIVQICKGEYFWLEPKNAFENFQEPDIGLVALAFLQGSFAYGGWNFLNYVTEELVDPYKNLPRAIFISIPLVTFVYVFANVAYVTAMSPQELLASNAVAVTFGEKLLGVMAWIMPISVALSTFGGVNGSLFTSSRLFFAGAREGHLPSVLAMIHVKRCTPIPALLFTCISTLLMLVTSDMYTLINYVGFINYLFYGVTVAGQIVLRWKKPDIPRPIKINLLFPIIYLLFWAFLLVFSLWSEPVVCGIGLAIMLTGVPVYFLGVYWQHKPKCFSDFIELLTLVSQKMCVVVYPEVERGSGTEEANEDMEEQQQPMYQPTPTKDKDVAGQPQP
T1 sequence (P08195 1-529 partner): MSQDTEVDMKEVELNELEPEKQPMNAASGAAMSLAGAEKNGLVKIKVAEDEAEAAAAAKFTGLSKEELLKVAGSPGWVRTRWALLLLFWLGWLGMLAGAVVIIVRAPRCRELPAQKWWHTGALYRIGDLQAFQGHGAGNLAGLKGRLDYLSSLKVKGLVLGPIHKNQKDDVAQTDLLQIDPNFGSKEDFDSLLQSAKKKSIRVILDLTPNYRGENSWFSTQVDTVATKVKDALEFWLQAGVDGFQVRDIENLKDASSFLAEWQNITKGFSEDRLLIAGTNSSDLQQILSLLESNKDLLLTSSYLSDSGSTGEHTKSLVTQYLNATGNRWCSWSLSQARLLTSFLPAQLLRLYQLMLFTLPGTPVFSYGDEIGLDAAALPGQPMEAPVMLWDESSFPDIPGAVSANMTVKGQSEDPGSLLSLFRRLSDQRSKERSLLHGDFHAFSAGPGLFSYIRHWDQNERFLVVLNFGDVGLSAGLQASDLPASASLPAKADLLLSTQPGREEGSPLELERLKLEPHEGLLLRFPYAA
Experimental: Substrate transport inhibition studies were conducted with LLC-PK1 cells inducibly expressing either hLAT1 or hLAT2. Cells were plated in growth media with 1 μg/mL doxycycline at 30,000 cells/well in 96-well plates. Sixteen hours after plating, cells were treated with butyrate at a final concentration of 5 mM. The following day, cells were washed with PBS and incubated in the presence or absence of various concentrations of QBS10072S with 30,000 cpm/well of either [3H]-gabapentin (LAT1) or [3H]-leucine (LAT2) in PBS for 15 minutes at room temperature. The non-specific cell-bound activity was determined by the addition of 5 mM unlabeled gabapentin (LAT1) or leucine (LAT2). Unincorporated radioactivity was removed, and cells were washed three times with ice-cold PBS. Cells were lysed by adding scintillation fluid to each well, and cell-associated radioactivity was determined via scintillation counting using a multichannel 96-well plate reader (MicroBeta Trilux, Perkin Elmer, Waltham, MA). Data were expressed as the percent of specific radioactivity uptake in wells with no compound added. LC50s were determined by non-linear curve-fitting using GraphPad Prism (San Diego, CA).

[2] = Microscopic evaluation of brain tissue after dosing rodents; format: in vivo; details: rodents dosed with high levels
[3] = test system: U251 intracerebral human GBM xenograft; experiment: U251 intracerebral human GBM xenograft in athymic mice (BLI, survival); format: in vivo, mouse
Experimental: Five-week-old female athymic mice (nu/nu, homozygous: Simonsen Laboratories, Gilroy, CA), housed under aseptic conditions, received intracranial tumor cell injection as previously described and as approved by the University of California San Francisco Institutional Animal Care and Use Committee, Protocol #: AN111064-03. Briefly, mice were anesthetized by intraperitoneal injection of ketamine (100 mg/kg) and xylazine (10 mg/kg) and injected with 3 μL of tumor cell suspension (300,000 cells total) into the right caudate-putamen. Coordinates: 3 mm to the right from bregma, on top of the coronal suture, and 3.5 mm depth. Injection rate: ~30 second/uL. For treatment studies, eight mice were used for each group for LN229 studies and nine mice per group for U251 studies. Treatments began when tumors entered the log-phase of growth as measured by luminescence, for the LN229 experiment on Day 21 and for U251 experiments on Day 14.
Dosing levels and frequency are described in the figure legends.
For bioluminescence imaging (BLI), mice were anesthetized as above, then administered 150 mg/kg of luciferin (D-luciferin potassium salt, Gold Biotechnology, St. Louis, MO) via intraperitoneal injection. Ten minutes after luciferin injection, mice were examined for tumor bioluminescence with an IVIS Lumina imaging station and Living Image software (Caliper Life Sciences, Alameda, CA), and regions of interest were recorded as photons per second per steradian per square cm.
Mice were anesthetized via inhalation of 2.5% isoflurane with 1 L of oxygen per minute for five minutes prior to being positioned on an irradiation platform located 16.3 cm from a cesium-137 source (JL Shepherd & Associates, San Fernando, CA). Eyes, respiratory tracts, and bodies were protected with lead shielding. Mice received whole-brain irradiation at a dose rate of 247 cGy/min until 1.5 Gy radiation had been administered. After irradiation, animals were monitored until recovery. Mice were irradiated once daily for five consecutive days. All mice received the first radiation dose when tumors were in a log-phase growth (Day 14) as determined by BLI.
Tumor-bearing mice were treated with temozolomide (TMZ) 4 mg/kg via oral gavage, starting on day 14 post U251 cell injection once daily for five days - concurrent therapy with RT. TMZ was obtained from the UCSF hospital pharmacy and formulated with the Ora-Plus suspending vehicle (Perrigo, Dublin, Ireland) with a working concentration of 1 mg/mL.

With Cc1ccc(N(CCCl)CCCl)cc1C[C@H](N)CC(=O)O [QBS10072S, (+)-(3S)-amino-4-[5-[bis(2-chloroethyl)amino]-2-methyl-phenyl]butanoic acid] the pIC50 [1] was 2.96, the “alterations of the BBB, microscopic evaluation of brain tissue” value [2] was “no alterations of the BBB” and the “body weight loss over the course of the study” value ([3]; 10 mg/kg IV once a week for six weeks) was “no significant body weight loss”. It also gave a median survival time ([3]; 10 mg/kg IV once a week for six weeks, vehicle 37) of 70 days, a median survival time ([3]; QBS10072S 10 mg/kg once a week for 4 weeks + RT 1.5 Gy daily for 5 days, vehicle 35) of 64 days and a median survival time ([3]; QBS10072S alone, 10 mg/kg once a week for 4 weeks, vehicle 35) of 45 days. The “tumor growth inhibition (TGI) vs. vehicle” value ([3]; day 35, 10 mg/kg IV once a week for six weeks) was 95%, the “%TGI” value ([3]; day 35, QBS10072S alone, 10 mg/kg once a week for 4 weeks) was 86% and the “%TGI” value ([3]; day 35, combination of QBS10072S 10 mg/kg once a week for 4 weeks and RT 1.5 Gy once daily for 5 days) was 96%.
